Patent publication US11419909B2, “Compositions and methods for maintaining or enhancing homeostasis or function of female lower reproductive tract” (FAIRHAVEN HEALTH, LLC, priority 2016, dated 2022)

Details: plant derived raw materials

## O=C[C@H](O)[C@@H](O)[C@H](O)CO [D-Xylose source 1, D-Xylose]
  Endotoxin Level: <0.07 EU/mg
